# Test results reported in PubChem BioAssay (NCI).
#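 How tested: cells in 96-well plates exposed to compound for 48 hours at five concentrations. GI50 = concentration required for 50% inhibition of growth. TGI marks complete inhibition of growth.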
# Experiments:
# Assay in all cases: NCI anticancer screen, dose series, 48 h
# MOLT-4 leukemia = tested on: MOLT-4 leukemia
# SF-268 CNS = tested on: SF-268 CNS
# OVCAR-8 ovarian = tested on: OVCAR-8 ovarian
# CCRF-CEM leukemia = tested on: CCRF-CEM leukemia
# A549 NSCLC = tested on: A549 NSCLC
# OVCAR-4 ovarian = tested on: OVCAR-4 ovarian
# UACC-62 melanoma = tested on: UACC-62 melanoma
# CAKI-1 renal = tested on: CAKI-1 renal
# NCI-H522 lung = tested on: NCI-H522 lung
# EKVX NSCLC = tested on: EKVX NSCLC
# HOP-92 NSCLC = tested on: HOP-92 NSCLC
# HT29 colon = tested on: HT29 colon
# MDA-MB-435 = tested on: MDA-MB-435
# MDA-MB-231 breast = tested on: MDA-MB-231 breast
# HOP-62 NSCLC = tested on: HOP-62 NSCLC
# KM12 colon = tested on: KM12 colon
# PC-3 prostate = tested on: PC-3 prostate
# SN12C renal = tested on: SN12C renal
# NCI-H460 lung = tested on: NCI-H460 lung
# SW-620 colon = tested on: SW-620 colon
# COLO 205 colon = tested on: COLO 205 colon
# M14 melanoma = tested on: M14 melanoma
# LOX IMVI melanoma = tested on: LOX IMVI melanoma
# SK-MEL-5 melanoma = tested on: SK-MEL-5 melanoma
# RXF 393 renal = tested on: RXF 393 renal
# K-562 leukemia = tested on: K-562 leukemia
# HCC-2998 colon = tested on: HCC-2998 colon
# SF-539 CNS = tested on: SF-539 CNS
# NCI-H23 lung = tested on: NCI-H23 lung
# HCT-15 colon = tested on: HCT-15 colon
# ACHN renal = tested on: ACHN renal
# A498 renal = tested on: A498 renal
# NCI-H226 lung = tested on: NCI-H226 lung
# OVCAR-3 ovarian = tested on: OVCAR-3 ovarian
# OVCAR-5 ovarian = tested on: OVCAR-5 ovarian
# RPMI-8226 leukemia = tested on: RPMI-8226 leukemia
# HS 578T breast = tested on: HS 578T breast
# MCF7 breast = tested on: MCF7 breast
# SK-MEL-2 melanoma = tested on: SK-MEL-2 melanoma
# SK-MEL-28 melanoma = tested on: SK-MEL-28 melanoma
# SNB-19 CNS = tested on: SNB-19 CNS
# UO-31 renal = tested on: UO-31 renal
# SR leukemia = tested on: SR leukemia
# U251 CNS = tested on: U251 CNS
# MALME-3M melanoma = tested on: MALME-3M melanoma
# T-47D breast = tested on: T-47D breast
# UACC-257 melanoma = tested on: UACC-257 melanoma
# BT-549 breast = tested on: BT-549 breast
# HCT-116 colon = tested on: HCT-116 colon
# SF-295 CNS = tested on: SF-295 CNS
# NCI/ADR-RES ovarian = tested on: NCI/ADR-RES ovarian
# 786-0 renal = tested on: 786-0 renal
# DU-145 prostate = tested on: DU-145 prostate
# TK-10 renal = tested on: TK-10 renal
# IGROV1 ovarian = tested on: IGROV1 ovarian
# HL-60(TB) leukemia = tested on: HL-60(TB) leukemia
# SNB-75 CNS = tested on: SNB-75 CNS
# SK-OV-3 ovarian = tested on: SK-OV-3 ovarian
smiles,measurement,setting,value
CCOC(=O)c1c(N2CCN(C)CC2)[nH]c(=O)c(C(c2c(Cl)cccc2Cl)c2c(O)c(C(=O)OCC)c(N3CCN(C)CC3)[nH]c2=O)c1O,TGI,MOLT-4 leukemia,62.2 µM
same,TGI,SF-268 CNS,56.5 µM
same,TGI,OVCAR-8 ovarian,45 µM
same,TGI,CCRF-CEM leukemia,> 100 µM
same,TGI,A549 NSCLC,71.4 µM
same,TGI,OVCAR-4 ovarian,38.4 µM
same,TGI,UACC-62 melanoma,39.5 µM
same,TGI,CAKI-1 renal,52.7 µM
same,TGI,NCI-H522 lung,42 µM
same,TGI,EKVX NSCLC,34.2 µM
same,TGI,HOP-92 NSCLC,37.6 µM
same,TGI,HT29 colon,39.1 µM
same,TGI,MDA-MB-435,57.9 µM
same,TGI,MDA-MB-231 breast,55.1 µM
same,TGI,HOP-62 NSCLC,> 100 µM
same,TGI,KM12 colon,49.7 µM
same,TGI,PC-3 prostate,47.5 µM
same,TGI,SN12C renal,48 µM
same,TGI,NCI-H460 lung,77 µM
same,TGI,SW-620 colon,68.2 µM
same,TGI,COLO 205 colon,> 100 µM
same,TGI,M14 melanoma,68.9 µM
same,TGI,LOX IMVI melanoma,> 100 µM
same,TGI,SK-MEL-5 melanoma,40.1 µM
same,TGI,RXF 393 renal,38.8 µM
same,TGI,K-562 leukemia,86.8 µM
same,TGI,HCC-2998 colon,78.1 µM
same,TGI,SF-539 CNS,39.5 µM
same,TGI,NCI-H23 lung,> 100 µM
same,TGI,HCT-15 colon,97.7 µM
same,TGI,ACHN renal,42.8 µM
same,TGI,A498 renal,39.8 µM
same,TGI,NCI-H226 lung,52.6 µM
same,TGI,OVCAR-3 ovarian,87.1 µM
same,TGI,OVCAR-5 ovarian,> 100 µM
same,TGI,RPMI-8226 leukemia,> 100 µM
same,TGI,HS 578T breast,75 µM
same,TGI,MCF7 breast,> 100 µM
same,TGI,SK-MEL-2 melanoma,53.2 µM
same,TGI,SK-MEL-28 melanoma,34.1 µM
same,TGI,SNB-19 CNS,37.2 µM
same,TGI,UO-31 renal,39.1 µM
same,TGI,SR leukemia,67.6 µM
same,TGI,U251 CNS,50 µM
same,TGI,MALME-3M melanoma,41.5 µM
same,TGI,T-47D breast,45.8 µM
same,TGI,UACC-257 melanoma,38.9 µM
same,TGI,BT-549 breast,40.8 µM
same,TGI,HCT-116 colon,> 100 µM
same,TGI,SF-295 CNS,63.3 µM
same,TGI,NCI/ADR-RES ovarian,> 100 µM
same,TGI,786-0 renal,87 µM
same,TGI,DU-145 prostate,38.3 µM
same,TGI,TK-10 renal,55.4 µM
same,TGI,IGROV1 ovarian,39.2 µM
same,TGI,HL-60(TB) leukemia,58.2 µM
O=C(NCCN1CCOCC1)c1cc2c(Oc3ccc(NC(=O)C4(C(=O)Nc5ccc(F)cc5)CC4)cc3)ccnc2[nH]1,GI50,MOLT-4 leukemia,3.48 µM
same,TGI,MOLT-4 leukemia,> 100 µM
same,GI50,SF-268 CNS,6.4 µM
same,TGI,SF-268 CNS,> 100 µM
same,GI50,OVCAR-8 ovarian,5.19 µM
same,TGI,OVCAR-8 ovarian,> 100 µM
same,GI50,CCRF-CEM leukemia,11 µM
same,TGI,CCRF-CEM leukemia,> 100 µM
same,GI50,A549 NSCLC,4.9 µM
same,TGI,A549 NSCLC,48.6 µM
same,GI50,OVCAR-4 ovarian,5.13 µM
same,TGI,OVCAR-4 ovarian,> 100 µM
same,GI50,UACC-62 melanoma,4.26 µM
same,TGI,UACC-62 melanoma,22.7 µM
same,GI50,CAKI-1 renal,13.7 µM
same,TGI,CAKI-1 renal,> 100 µM
same,GI50,NCI-H522 lung,7.69 µM
same,TGI,NCI-H522 lung,28.1 µM
same,GI50,EKVX NSCLC,10.3 µM
same,TGI,EKVX NSCLC,> 100 µM
same,GI50,HOP-92 NSCLC,1.82 µM
same,TGI,HOP-92 NSCLC,16.5 µM
same,GI50,HT29 colon,3 µM
same,TGI,HT29 colon,18.7 µM
same,GI50,MDA-MB-435,3.22 µM
same,TGI,MDA-MB-435,23.3 µM
same,GI50,MDA-MB-231 breast,8.4 µM
same,TGI,MDA-MB-231 breast,30.7 µM
same,GI50,HOP-62 NSCLC,3.22 µM
same,TGI,HOP-62 NSCLC,31.5 µM
same,GI50,KM12 colon,0.412 µM
same,TGI,KM12 colon,> 40.9 µM
same,GI50,PC-3 prostate,5.77 µM
same,TGI,PC-3 prostate,64.6 µM
same,GI50,SN12C renal,1.44 µM
same,TGI,SN12C renal,> 100 µM
same,GI50,NCI-H460 lung,4.36 µM
same,TGI,NCI-H460 lung,> 100 µM
same,GI50,SW-620 colon,15.3 µM
same,TGI,SW-620 colon,> 100 µM
same,GI50,COLO 205 colon,4.48 µM
same,TGI,COLO 205 colon,> 48.7 µM
same,GI50,M14 melanoma,4.14 µM
same,TGI,M14 melanoma,> 52.8 µM
same,GI50,LOX IMVI melanoma,2.05 µM
same,TGI,LOX IMVI melanoma,39.6 µM
same,GI50,SK-MEL-5 melanoma,3.03 µM
same,TGI,SK-MEL-5 melanoma,12.4 µM
same,GI50,SNB-75 CNS,0.893 µM
same,TGI,SNB-75 CNS,9.64 µM
same,GI50,RXF 393 renal,1.84 µM
same,TGI,RXF 393 renal,19.8 µM
same,GI50,SK-OV-3 ovarian,15.1 µM
same,TGI,SK-OV-3 ovarian,> 100 µM
same,GI50,K-562 leukemia,4.27 µM
same,TGI,K-562 leukemia,42.2 µM
same,GI50,HCC-2998 colon,15.3 µM
same,TGI,HCC-2998 colon,51.9 µM
same,GI50,SF-539 CNS,1.39 µM
same,TGI,SF-539 CNS,16.5 µM
same,GI50,NCI-H23 lung,1.59 µM
same,TGI,NCI-H23 lung,> 75.1 µM
same,GI50,HCT-15 colon,12.5 µM
same,TGI,HCT-15 colon,> 100 µM
same,GI50,ACHN renal,7.84 µM
same,TGI,ACHN renal,> 100 µM
same,GI50,A498 renal,0.833 µM
same,TGI,A498 renal,11.8 µM
same,GI50,NCI-H226 lung,3.73 µM
same,TGI,NCI-H226 lung,50.3 µM
same,GI50,OVCAR-3 ovarian,19 µM
same,TGI,OVCAR-3 ovarian,> 85.7 µM
same,GI50,OVCAR-5 ovarian,9.94 µM
same,TGI,OVCAR-5 ovarian,> 100 µM
same,GI50,RPMI-8226 leukemia,9.45 µM
same,TGI,RPMI-8226 leukemia,42.2 µM
same,GI50,HS 578T breast,1.32 µM
same,TGI,HS 578T breast,> 71.1 µM
same,GI50,MCF7 breast,2.36 µM
same,TGI,MCF7 breast,33.2 µM
same,GI50,SK-MEL-2 melanoma,9.19 µM
same,TGI,SK-MEL-2 melanoma,22.9 µM
same,GI50,SK-MEL-28 melanoma,4.37 µM
same,TGI,SK-MEL-28 melanoma,19.4 µM
same,GI50,SNB-19 CNS,14.2 µM
same,TGI,SNB-19 CNS,> 100 µM
same,GI50,UO-31 renal,1.15 µM
same,TGI,UO-31 renal,> 32.9 µM
same,GI50,U251 CNS,7.87 µM
same,TGI,U251 CNS,34.5 µM
same,GI50,MALME-3M melanoma,1.1 µM
same,TGI,MALME-3M melanoma,14.4 µM
same,GI50,T-47D breast,4.43 µM
same,TGI,T-47D breast,46 µM
same,GI50,UACC-257 melanoma,5.14 µM
same,TGI,UACC-257 melanoma,19.5 µM
same,GI50,BT-549 breast,7.85 µM
same,TGI,BT-549 breast,> 54.8 µM
same,GI50,HCT-116 colon,8.78 µM
same,TGI,HCT-116 colon,> 100 µM
same,GI50,SF-295 CNS,0.47 µM
same,TGI,SF-295 CNS,15.5 µM
same,GI50,NCI/ADR-RES ovarian,22.9 µM
same,TGI,NCI/ADR-RES ovarian,> 100 µM
same,GI50,786-0 renal,6.74 µM
same,TGI,786-0 renal,45.6 µM
same,GI50,DU-145 prostate,10.6 µM
same,TGI,DU-145 prostate,> 100 µM
same,GI50,TK-10 renal,7.56 µM
same,TGI,TK-10 renal,41 µM
same,GI50,IGROV1 ovarian,2.32 µM
same,TGI,IGROV1 ovarian,> 100 µM
same,GI50,HL-60(TB) leukemia,15.2 µM
same,TGI,HL-60(TB) leukemia,47 µM
